# Literature values as cited in patent US11331358B2, “Pharmaceutical composition and method of manufacturing” (CURE PHARMACEUTICAL HOLDING CORP., priority 2014, dated 2022).
# Where two headings read alike, the source gives them in different places.
# Settings: for Solubility in alcohols, lipids and organic solvents: solvents as named in the value; for Solubility in alcohols, lipids and organic solvents / Solubility in alkaline solutions: qualitative; for Solubility in alkaline solutions: alkaline solutions / alkalai
# [1] = qualitative (insol. / sp. sol. / sol)
compound,measurement,setting,value
"CCCCCc1cc(O)c2c(c1)OC1(C)CCC3C1C2C3(C)C (stereo not shown) [cannabicyclol (CBL), cannabicyclol]","Solubility in alcohols, lipids and organic solvents",,sol. pentane
same,Solubility in water,[1],insol.
"CCCCCc1cc(O)c2c(c1)OC(C)(C)[C@@H]1CC=C(C)CC21 (stereo partly shown) [Δ(8)-tetrahydrocannabinol (Δ(8)-THC), Δ(8)-tetrahydrocannabinol]","Solubility in alcohols, lipids and organic solvents",,"sol. MeOH, EtOH sol. lipids sol. non-polar organic solvents"
same,Solubility in water,[1],insol.
"C=C(C)C1CC=C(C)CC1c1c(O)cc(CCCCC)cc1O (stereo not shown) [Δ(8)-tetrahydrocannabidiol (Δ(8)-CBD), Δ(8)-tetrahydrocannabidiol]","Solubility in alcohols, lipids and organic solvents",,sol. pentane
same,Solubility in water,[1],insol.
COc1cc(-c2cc(=O)c3c(O)c(CC=C(C)C)c(O)cc3o2)ccc1O [cannaflavin B],Solubility in alkaline solutions,,sol.
same,"Solubility in alcohols, lipids and organic solvents",,"sol. alcohols, ethers, halocarbons"
same,Solubility in water,[1],insol.
"C[C@@H]1CCC2(OC2(C)C)C(=O)C1 (stereo partly shown) [pulegone-1,2epoxide]","Solubility in alcohols, lipids and organic solvents",,"sol. alcohols, organic solvents (ethers, halocarbons)"
same,Solubility in water,[1],insol.
"CCCCCc1cc(O)c2c(c1)OC(C)(C)c1ccc(C)cc1-2 [cannabinol (CBN), cannabinol]","Solubility in alcohols, lipids and organic solvents",,"sol. MeOH, EtOH, lipids, non-polar organic solvents"
same,Solubility in water,[1],insol.
Cc1ccc(C(C)C)cc1 [p-cymene],"Solubility in alcohols, lipids and organic solvents",,"sol. alcohols, organic solvents (ethers, halocarbons), hydrocarbons"
same,Solubility in water,[1],insol.
"CCCCCc1cc(O)c(C/C=C(\C)CCC=C(C)C)c(O)c1C(=O)O [cannabigerolic acid (CBGA), cannabigerolic acid]",Solubility in alkaline solutions,,sol
same,"Solubility in alcohols, lipids and organic solvents",,sol. alcohols
same,Solubility in water,[1],sol
CC1=CCC(O)(C(C)C)CC1 (stereo not shown) [terpinen-4-ol],"Solubility in alcohols, lipids and organic solvents",,"sol. alcohols, organic solvents (ethers, halocarbons)"
same,Solubility in water,[1],insol.
C=C(C)C1CC=C(C)C(=O)C1 (stereo not shown) [carvone],"Solubility in alcohols, lipids and organic solvents",,"sol. alcohols, organic solvents (ethers, halocarbons)"
same,Solubility in water,[1],insol.
C=C(C)C1CCC2(C)OC2C1 (stereo not shown) [limonene oxide],"Solubility in alcohols, lipids and organic solvents",,"sol. alcohols, organic solvents (ethers, halocarbons)"
same,Solubility in water,[1],insol.
C=C1CCC2OC2(C)CC[C@H]2[C@H]1CC2(C)C (stereo partly drawn) [β-caryophyllene epoxide],"Solubility in alcohols, lipids and organic solvents",,"sol. alcohols, organic solvents (ethers, halocarbons)"
same,Solubility in water,[1],insol.
CCCCCc1cc2c(c(O)c1C(=O)O)C1CC(C)=CC[C@H]1C(C)(C)O2 (stereo partly shown) [Δ(8)-tetrahydrocannabinolic acid],Solubility in alkaline solutions,,sol
same,"Solubility in alcohols, lipids and organic solvents",,sol. alcohols
same,Solubility in water,[1],sol
"CCCCCc1cc(O)c2c(c1)OC(C)(C)[C@@H]1CCC(C)=CC21 (stereo partly shown) [Δ(9)-tetrahydrocannabinol (Δ(9)-THC), Δ(9)-tetrahydrocannabinol, reference compound]","Solubility in alcohols, lipids and organic solvents",,"sol. MeOH, EtOH sol. lipids sol. non-polar organic solvents"
same,Solubility in water,23° C.,2.8 µg/mL
CC(C)=C1CC[C@@H](C)CC1=O [pulegone],"Solubility in alcohols, lipids and organic solvents",,"sol. alcohols, organic solvents (ethers, halocarbons)"
same,Solubility in water,[1],insol.
"CCCCCc1cc2c(c(O)c1C(=O)O)C=CC(C)(CCC=C(C)C)O2 (stereo not shown) [cannabichromenic acid (CBCA), cannabichromenic acid]",Solubility in alkaline solutions,,sol
same,"Solubility in alcohols, lipids and organic solvents",,sol. alcohols
same,Solubility in water,[1],sol
"CC12CCC(CC1)C(C)(C)O2 [1,8-cineole]","Solubility in alcohols, lipids and organic solvents",,"sol. alcohols, organic solvents (ethers, halocarbons)"
same,Solubility in water,[1],insol.
COc1cc(-c2cc(=O)c3c(O)c(C/C=C(\C)CCC=C(C)C)c(O)cc3o2)ccc1O [cannaflavin A],Solubility in alkaline solutions,,sol.
same,"Solubility in alcohols, lipids and organic solvents",,"sol. alcohols, ethers, halocarbons"
same,Solubility in water,[1],insol.
"CCCCCc1cc2c(c(O)c1C(=O)O)C1C3C(CCC3(C)O2)C1(C)C (stereo not shown) [cannabicyclolic acid (CBLA), cannabicyclolic acid]",Solubility in alkaline solutions,,sol
same,"Solubility in alcohols, lipids and organic solvents",,sol. alcohols
same,Solubility in water,[1],sol
"CCCCCc1cc2c(c(O)c1C(=O)O)-c1cc(C)ccc1C(C)(C)O2 [cannabinolic acid (CBNA), cannabinolic acid]",Solubility in alkaline solutions,,sol
same,"Solubility in alcohols, lipids and organic solvents",,sol. alcohols
same,Solubility in water,[1],sol
"CCCCCc1cc(O)c2c(c1)OC(C)(CCC=C(C)C)C=C2 (stereo not shown) [cannabichromene (CBC), cannabichromene]","Solubility in alcohols, lipids and organic solvents",,sol. pentane
same,Solubility in water,[1],insol.
C=C(C)C1CC=C(C)CC1 (stereo not shown) [limonene],"Solubility in alcohols, lipids and organic solvents",,"sol. alcohols, organic solvents (ethers, halocarbons), hydrocarbons"
same,Solubility in water,[1],insol.
C=C(C)C1CC=C(C)CC1c1c(O)cc(CCCCC)c(C(=O)O)c1O (stereo not shown) [Δ(8)-tetrahydrocannabidiolic acid],Solubility in alkaline solutions,,sol
same,"Solubility in alcohols, lipids and organic solvents",,sol. alcohols
same,Solubility in water,[1],sol
"CCCCCc1cc(O)c(C/C=C(\C)CCC=C(C)C)c(O)c1 [cannabigerol (CBG), cannabigerol]","Solubility in alcohols, lipids and organic solvents",,sol. pentane
same,Solubility in water,[1],insol.
C=CC(=C)CCC=C(C)C [β-myrcene],Solubility in water,[1],insol.
Cc1ccc(C(C)C)cc1O [carvacrol],"Solubility in alcohols, lipids and organic solvents",,"sol. alcohols, organic solvents (ethers, halocarbons)"
same,Solubility in water,[1],sp. sol.
fenchone,"Solubility in alcohols, lipids and organic solvents",,"sol. alcohols, organic solvents (ethers, halocarbons)"
same,Solubility in water,[1],insol.
CCCCCc1cc2c(c(O)c1C(=O)O)C1C=C(C)CC[C@H]1C(C)(C)O2 (stereo partly shown) [Δ(9)-tetrahydrocannabinolic acid],Solubility in alkaline solutions,,sol
same,"Solubility in alcohols, lipids and organic solvents",,sol. alcohols
same,Solubility in water,[1],sol
"CCCc1cc(O)c2c(c1)OC(C)(C)[C@@H]1CCC(C)=CC21 (stereo partly shown) [Δ(9)- tetrahydrocannabivarin (Δ(9)-THV), Δ(9)-tetrahydrocannabivarin]",Solubility in alkaline solutions,,sol
same,"Solubility in alcohols, lipids and organic solvents",,sol. alcohols
same,Solubility in water,[1],sol
